Data on 1 compound can be found in publication PMC8838898, “Identification of Novel Cannabinoid CB2 Receptor Agonists from Botanical Compounds and Preliminary Evaluation of Their Anti-Osteoporotic Effects” (Molecules, 2022).

Data set [1] concerns osteoclasts derived from RAW264.7 cells. As to the kind of experiment: F-actin ring formation assay in osteoclasts. The class given is cell-based, murine. The method, then:
RAW264.7 cells were incubated in a confocal culture dish (diameter, 35 mm) at adensity of 5 × 10^4 cells·dish^−1 for 24 h, treated with 25 ng·mL^−1 RANKL and the screened compounds for five days, fixed with 4% paraformaldehyde for 30 min, stained with 5 μg·mL^−1 rhodamine-conjugated phalloidin (Sigma-Aldrich Chemical Co.) at 37 °C for 40 min, washed with PBS again, and stained again with 4′,6-diamidino-2-phenylindole (DAPI, Beyotime, Shanghai, China) for 10 min at room temperature (Li et al., 2018). The F-actin ring of the osteoclasts was observed under a fluorescent microscope (Axiovert 200, Carl Zeiss, Oberkochen, Germany). The fluorescence images of the cells were processed using Zeiss ZEN software.

Another data set deals with T1, CB2R (Homo sapiens, UniProt P34972).
T1 construct: expressed in transfected cells; host or cells: HEK293 cells stably transfected with pIRES2-EGFP-CB2, pGL4.29 [luc2P/CRE/Hygro] and pRL-TK
T1 sequence (P34972 whole entry): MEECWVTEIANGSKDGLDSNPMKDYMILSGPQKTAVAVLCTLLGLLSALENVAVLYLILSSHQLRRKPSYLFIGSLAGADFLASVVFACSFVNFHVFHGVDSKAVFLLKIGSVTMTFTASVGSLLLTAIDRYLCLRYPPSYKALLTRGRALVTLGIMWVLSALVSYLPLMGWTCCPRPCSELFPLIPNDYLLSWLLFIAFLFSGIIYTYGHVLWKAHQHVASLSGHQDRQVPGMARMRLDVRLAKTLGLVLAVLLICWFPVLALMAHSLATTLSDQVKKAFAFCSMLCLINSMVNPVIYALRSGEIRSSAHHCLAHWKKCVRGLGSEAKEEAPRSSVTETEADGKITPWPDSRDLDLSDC
As to the kind of experiment: double luciferase reporter screening system in HEK293-CB2 cells. The class given is cell-based. Particulars: 1 μM, 6-h treatment. The method, then: To generate the HEK293-CB2 cells, 5 × 10^5 HEK293 cells were cultured in a 60 mm culture dish for 12 h, washed with PBS, and then transfected with Lipofectamine 3000 reagent containing a test reporter plasmid, control reporter plasmid encoding Renilla luciferase, and effector plasmid. The ratio of the transfection plasmid pIRES2-EGFP-CB2, pGL4.29 [luc2P/CRE/Hygro], and pRL-TK was 2 μg, 10 μg, and 1μg, respectively. After a 24-htransfection, cells were selected and cultured in the medium containing G418 (800 μg·mL^−1) and hygromycin (400 μg·mL^−1) for two weeks. The surviving cells were picked and expanded as HEK293-CB2R cells.
Several aspects of the high-throughput screening system were optimized to ensure efficient and accurate application of the system for high-throughput data collection. To conduct high-throughput assays in 96-well plates, the number of cells seeded per well, incubation time, drug and AM630 concentrations, and the DMSO content were optimized. The dual luciferase assay was performed as described previously. […] Subsequently, the quantitative evaluation indexes of the high-throughput screening system, including the signal-to-background ratio, S/B = Msignal/Mbackground; signal window, SW = Msignal − Mbackground; signal-to-noise ratio, S/N = (Msignal − Mbackground)/SDbackground; signal background coefficient of variation, CV(%) = 100 × SDsignal/Msignal; and Z’ factor were determined to ensure its efficient and accurate application of the system in high-throughput data collection. Here, Z′ = 1 − 3(SDsignal + SDbackground)/|Msignal − Mbackground| [25], where M represents an average of the relative luminescence value and SD is the standard deviation of M.
The HEK293-CB2 cells from 10–40 passages were separately inoculated into 96-well plates at 5 × 10^3 cells per well. […] The results were expressed as relative luminescence values.
The HEK293-CB2 cells were inoculated on a 96-well culture plate with a density of 5 × 10^3 cells per well. […] The relative luminescence value was used to express the expression of CB2R.
Furthermore, the activation of the compounds on CB2R was also verified by using the CB2R inverse agonist AM630. The HEK293-CB2 cells were inoculated on a 6-well culture plate at a density of 5 × 10^4 cells per well. […] The expression of the CB2R gene is expressed by the relative luminescence value.

The test system of another data set is RAW264.7 macrophages. The data set is described as follows: viability of RAW264.7 macrophages (CCK8). The class given is cell-based, murine. The following applies: 1 μM, three days. The procedure:
The murine macrophage RAW264.7 cell line, which has the potential to differentiate into osteoclasts under the induction of RANKL, was obtained from the Cell Bank of the Chinese Academy of Sciences (Shanghai, China). The cells were cultured in DMEM containing 10% (v/v), 1% (v/v) penicillin, and streptomycin (Beyotime, Shanghai, China) at 37 °C in humidified air with 5% CO2, and then subcultured every two days. For induction of the osteoclasts, RAW264.7 cells were incubated with 25 ng·mL^−1 RANKL for 72 h. Osteoclasts were identified by TRAP staining.
RAW264.7 cells were inoculated in a 96-well plate at a density of 1 × 10^4 cells per well. After a 24-h culture at 37 °C, cells were treated with the test compounds for 48 h and cell viability was determined with the CCK-8 kit according to the instructions. RAW264.7 cells were inoculated on a 96-well culture plate at a density of 1 × 10^4 cells per well, induced with […] of nuclear factor-κB receptor activator ligand (RANKL) to differentiate into osteoclasts for 72 h. […] The reaction was terminated with 1 mol·L^−1 of NaOH solution (100 μL per well) and the absorbance was determined at a wavelength of 405 nm. […]

Turning to `CCCCCCC(C)(C)c1cc(OC)c([C@@H]2C=C(CO)[C@@H]3C[C@H]2C3(C)C)c(OC)c1` [HU308], the “reversal of the F-actin ring effect by AM630” value in data set [1] (1 μM AM630) is listed as “could also be reversed by AM630”. For the same compound, the “formation of the F-actin ring in osteoclasts” value in data set [1] (five-day treatment, phalloidin staining) is reported as “decreased the formation of the F-actin ring”. Besides, the “luciferase activity of HEK293-CB2 cells of passages 10, 15, 25, 35 and 40” value at CB2R is on record as “significantly increased”. In addition, in the data set with RAW264.7 macrophages, the “viability of RAW264.7 macrophages” value was “had no inhibitory effects on the viability”.
